Starred links: 1 amine or outer side, 2 acyl side, 3 side chain; linkers in the order of their positions; H or OH if unused. Positions of bridges follow the written chain, without caps; N, C: chain ends. Residues, ends and D or L forms follow the SMILES beside them. Chains are numbered I, II in the order given. X1 = O=C(c1ccc(Oc2nc(NCCN[*:2])nc(NCCN[*:3])n2)cc1)[*:1]
Tests used:
Format in all cases: cell-based
[1] = test system: P. aeruginosa susceptible and resistant strains; assay: Checkerboard assay; conditions: both susceptible and resistant strains
Procedure: (§1) A checkerboard assay was used to determine the fractional inhibitory concentrations (FICs) of dendrimers in combination with conventional antibiotics. Briefly, each well in a 96-well plate was inoculated with 100 µL of a bacterial inoculum of 1 × 10^6 CFU/mL, and the plates were incubated at 37 °C for 24 h. The FIC was calculated after identifying the first well in each row without growth (MIC), according to the following formula: FIC of drug A (FIC A) = (MIC of drug A in combination)/(MIC of A); FIC of drug B (FIC B) = (MIC of drug B in combination)/(MIC of B). The FIC index (FICI) values were calculated by adding the FIC of drug A to the FIC of drug B [46]. The interpretation of the (FICI) was the following: FICI ≤ 0.5, synergy; 0.5 < FICI ≤ 1, additivity; 1 < FICI ≤ 2 […].

[2] = test system: E. coli susceptible strains; assay: Checkerboard assay
Procedure: as §1

[3] = test system: MDR E. coli; assay: Checkerboard assay; conditions: for interaction with ciprofloxacin: MDR E. coli; for interaction with rifampicin: strain not stated at this place, b42: results for rifampin quite similar to ciprofloxacin
Procedure: as §1

[4] = test system: E. coli ATCC 25922; assay: Atomic force microscopy of treated bacteria; conditions: E. coli ATCC 25922, dendrimer at MIC, 4 h, 37 °C
Procedure: E. coli ATCC 25922 was grown at 37 °C in Mueller Hinton cation-adjusted broth to an optical density of 0.25 at 625 nm. Dendrimers were added to a starting inoculum of 10^6 CFU/mL and incubated for 4 h at 37 °C with shaking. Untreated E. coli was included as a control. Cells in 1 mL of culture were centrifuged at 5000 rpm for 5 min and washed three times with 1 mL of sterile water. The bacterial cells were then resuspended in 100 µL of sterile water and a 10 µL drop was applied to a freshly cleaved mica surface and allowed to dry for approximately 10 min at room temperature.
The disk surfaces were analyzed by atomic force microscopy using an AFM XE-70 (Park Systems, Suwon, Korea) in non-contact mode with an ACTA 10M cantilever. […] The AFM images were processed using a scanning probe image processor XEI (Park Systems), correcting the plane of the AFM image for any coupling of the lateral plane and the z-axis caused by the instrument.

[5] = test system: E. coli 208691; assay: Intracellular accumulation of acridine orange; conditions: E. coli 208691, dendrimers at MIC, ½ MIC, ¼ MIC, AO 0.25 µg/mL, 30 min
Procedure: (§2) The assay was performed as previously described by Armengol et al. including control and clinical strains (E. coli 208691 and P. aeruginosa 666 SJD) previously studied by our group. Briefly, 96-well flat-bottomed microtiter plates (Guangzhou Jet Bio-Filtration Co., Ltd., Mianyang, China) were used. Overnight cultures were diluted in 1/4 Ringer’s solution to an OD520nm of 1.5, and 100 µL was added to the wells previously filled with 100 µL of Ringer’s solution. Acridine Orange (AO) was added to a final concentration of 0.25 µg/mL. The inoculated plates were then incubated for 30 min with shaking, after which the fluorescence was measured in a FLUOstar OPTIMA fluorescence microplate reader (BMG Labtech, Ortenberg, Germany).
(§3) To determine the uptake and accumulation of AO by bacteria, different scenarios were compared. First, bacteria were examined in the presence of PAβN at 20 µg/mL, and then in the presence of different concentrations of the dendrimers at (MIC, ½ MIC, ¼ MIC). The results in each condition were expressed as the percentage increase in fluorescence with respect to the control.

[6] = test system: P. aeruginosa ATCC 27853; assay: Intracellular accumulation of acridine orange; conditions: P. aeruginosa ATCC 27853, dendrimers at MIC
Procedure: as §2, §3

[7] = test system: MDR P. aeruginosa; conditions: 24 h
Procedure: (§4) E. coli ATCC 25922, P. aeruginosa ATCC 27853, S. aureus ATCC 29213, P. aeruginosa 666 SJD (ciprofloxacin-resistant), P. aeruginosa P12, P13, P15, P16 and P17 (MDR isolates) and E. coli 7987, 5545, 8248, 13974, 7259 and 208691 (MDR isolates) from our own collection were included in the present study.
(§5) The antimicrobial activity of the dendrimers was evaluated against E. coli ATCC 25922, P. aeruginosa ATCC 27853 and S. aureus ATCC 29213 strains. The MIC values were determined by the broth microdilution method. Briefly, the different strains were grown in Muller Hinton broth cation adjusted (MHBCA) medium overnight at 37 °C with shaking at 200 rpm. The bacterial cultures were then adjusted to OD625nm of 0.08–0.1, and 5 μL of each diluted suspension was added to 96-well plates previously filled with MHBCA and serially diluted peptides. Plates were incubated for 24 h at 37 °C. Finally, the MIC was determined macroscopically, based on the visual turbidity of the wells.

[8] = test system: MDR E. coli; conditions: 24 h
Procedure: as §4, §5

[9] = test system: P. aeruginosa ATCC 27853; assay: Time-kill curves; conditions: P. aeruginosa ATCC 27853, ½ MIC
Procedure: The death kinetics of the active dendrimers were examined by plotting their time-kill curves against E. coli ATCC 25922 and P. aeruginosa ATCC 27853. The dendrimers were added to a starting bacterial inoculum of 10^6 CFU/mL in 5 mL of MHBCA medium. Dendrimers were tested at three different concentrations: MIC, ½ MIC and ¼ MIC. They were incubated for 24 h at 37 °C with shaking at 200 rpm. Samples were aseptically collected at 0, 1, 2, 4 and 6 h, serially diluted in Ringer ¼ and plated on Tryptone soy agar for colony counting.
The response of the microbial strains to the dendrimers was determined based on a logarithmic decrease in viable bacteria. A compound was considered active if it caused a reduction of ≥1 log10 CFU/mL, compared to the corresponding counts at time 0 h. In addition, a dendrimer was considered bactericidal if it caused a reduction of ≥3 log10 CFU/mL [40].

`CC(C)C[C@H](NC(=O)c1ccc(Oc2nc(NCCNC(=O)[C@H](CCCCN)NC(=O)[C@H](CC(C)C)NC(=O)[C@H](CCCCN)NC(=O)[C@H](CC(C)C)NC(=O)[C@H](CCCCN)NC(=O)[C@@H](N)CC(C)C)nc(NCCNC(=O)[C@H](CCCCN)NC(=O)[C@H](CC(C)C)NC(=O)[C@H](CCCCN)NC(=O)[C@H](CC(C)C)NC(=O)[C@H](CCCCN)NC(=O)[C@@H](N)CC(C)C)n2)cc1)C(=O)N[C@@H](CCCCN)C(=O)N[C@@H](CC(C)C)C(=O)N[C@@H](CCCCN)C(=O)N[C@@H](CC(C)C)C(=O)N[C@@H](CCCCN)C(N)=O` [Dendrimer 1, H-[(LK)3]2-(EDA)2-TA-PHBA-(LK)3-NH2] (I: LKLKLK-NH2 / II: H-LKLKLK / III: H-LKLKLK; linker I:N-II:C-III:C via X1) was tested, and the interaction with ciprofloxacin [1] was “additive effect”, the interaction with ciprofloxacin [2] was “additive effect” and the interaction with ciprofloxacin [3] was “synergistic”. The interaction with rifampicin [3] was “synergic”, the “bacterial surface alteration by AFM (in words)” value [4] was “significant surface damages” and the “AO accumulation (in words)” value [5] was “marked increase in AO accumulation”. The “AO accumulation (in words)” value [6] was “slight increase in AO accumulation”.
With `CC(C)C[C@H](NC(=O)[C@H](CCCCN)NC(=O)[C@H](CC(C)C)NC(=O)[C@H](CCCCN)NC(=O)[C@H](CC(C)C)Nc1nc(NCCNC(=O)[C@H](CCCCN)NC(=O)[C@H](CC(C)C)NC(=O)[C@H](CCCCN)NC(=O)[C@H](CC(C)C)NC(=O)[C@H](CCCCN)NC(=O)[C@@H](N)CC(C)C)nc(NCCNC(=O)[C@H](CCCCN)NC(=O)[C@H](CC(C)C)NC(=O)[C@H](CCCCN)NC(=O)[C@H](CC(C)C)NC(=O)[C@H](CCCCN)NC(=O)[C@@H](N)CC(C)C)n1)C(=O)N[C@@H](CCCCN)C(N)=O` [Dendrimer 2, H-[(LK)3-EDA]2-TA-(LK)3-NH2] the “MIC values in MDR P. aeruginosa (span over isolates)” value [7] was 16 to 32 µg/mL, the “MIC values in MDR E. coli (span over isolates)” value [8] was 2 to 8 µg/mL and the interaction with ciprofloxacin [1] was “additive effect”. For the same compound, the interaction with ciprofloxacin [2] was “additive effect”, the interaction with ciprofloxacin [3] was “synergistic” and the interaction with rifampicin [3] was “synergic”. For the same compound, the “time-kill activity at ½ MIC (in words)” value [9] was “higher antimicrobial activity than dendrimer 1” and the “bacterial surface alteration by AFM (in words)” value [4] was “significant surface damages”.
